The target in one assay is VEGFR II (KDR) (Homo sapiens, UniProt P35968). Put plainly: Inhibition of the KDR kinase activity (33P-ATP, poly-(Glu4Tyr) filter assay). The assay is classed as biochemical. Here is the method:
• Stock Solutions • Stock solution A: 3 mmol of ATP in water, pH 7.0 (−70° C.) • Stock solution B: g-33P-ATP 1 mCi/100 μl • Stock solution C: poly-(Glu4Tyr) 10 mg/ml in water • Solution for Dilutions • Substrate solvent: 10 mmol of DTT, 10 mmol of manganese chloride, 100 mmol of magnesium chloride • Enzyme solution: 120 mmol of tris/HCl, pH 7.5, 10 μM of sodium vanadium oxide Sample Application 1 Inhibition of the KDR- and FLT-1 Kinase Activity in the Presence of the Compounds According to the Invention
In a microtiter plate (without protein binding) that tapers to a point, 10 μl of substrate mix (10 μl of volume of ATP stock solution A+25 μCi of g-33P-ATP (about 2.5 μl of stock solution B)+30 μl of poly-(Glu4Tyr) stock solution C+1.21 ml of substrate solvent), 10 μl of inhibitor solution (substances corresponding to the dilutions, 3% DMSO in substrate solvent as a control) and 10 μl of enzyme solution (11.25 μg of enzyme stock solution (KDR, FLT-1 or FLT-4 kinase) are added at 4° C. in 1.25 ml of enzyme solution (dilute). It is thoroughly mixed and incubated for 10 minutes at room temperature. Then, 10 μl of stop solution (250 mmol of EDTA, pH 7.0) is added, mixed, and 10 μl of the solution is transferred to a P 81 phosphocellulose filter. […] The filter paper is dried, coated with Meltilex, and measured in a microbeta counter. […]

Assay [1] addresses T1, Cytochrome P450 isoenzyme 3A4 (Homo sapiens, UniProt P08684).
T1 construct: host or cells: baculovirus/insect cells
Put plainly: Cytochrome P450 inhibition (Crespi et al.). The assay is classed as in vitro ADME. The conditions noted are these: baculovirus/insect cell-expressed human isoenzyme 3A4. Here is the method: Cytochrome P450 Inhibition
The Cytochrome P450 inhibition was performed according to the publication of Crespi et al. (Anal. Biochem., 248, 188–190 (1997)) with use of the baculovirus/insect cell-expressed and human Cytochrome P450 isoenzyme (3A4).

Like-named read-outs stand apart in the source and are kept apart here.

Sequence of VEGFR II (KDR) (P35968 20-1356, species assumed): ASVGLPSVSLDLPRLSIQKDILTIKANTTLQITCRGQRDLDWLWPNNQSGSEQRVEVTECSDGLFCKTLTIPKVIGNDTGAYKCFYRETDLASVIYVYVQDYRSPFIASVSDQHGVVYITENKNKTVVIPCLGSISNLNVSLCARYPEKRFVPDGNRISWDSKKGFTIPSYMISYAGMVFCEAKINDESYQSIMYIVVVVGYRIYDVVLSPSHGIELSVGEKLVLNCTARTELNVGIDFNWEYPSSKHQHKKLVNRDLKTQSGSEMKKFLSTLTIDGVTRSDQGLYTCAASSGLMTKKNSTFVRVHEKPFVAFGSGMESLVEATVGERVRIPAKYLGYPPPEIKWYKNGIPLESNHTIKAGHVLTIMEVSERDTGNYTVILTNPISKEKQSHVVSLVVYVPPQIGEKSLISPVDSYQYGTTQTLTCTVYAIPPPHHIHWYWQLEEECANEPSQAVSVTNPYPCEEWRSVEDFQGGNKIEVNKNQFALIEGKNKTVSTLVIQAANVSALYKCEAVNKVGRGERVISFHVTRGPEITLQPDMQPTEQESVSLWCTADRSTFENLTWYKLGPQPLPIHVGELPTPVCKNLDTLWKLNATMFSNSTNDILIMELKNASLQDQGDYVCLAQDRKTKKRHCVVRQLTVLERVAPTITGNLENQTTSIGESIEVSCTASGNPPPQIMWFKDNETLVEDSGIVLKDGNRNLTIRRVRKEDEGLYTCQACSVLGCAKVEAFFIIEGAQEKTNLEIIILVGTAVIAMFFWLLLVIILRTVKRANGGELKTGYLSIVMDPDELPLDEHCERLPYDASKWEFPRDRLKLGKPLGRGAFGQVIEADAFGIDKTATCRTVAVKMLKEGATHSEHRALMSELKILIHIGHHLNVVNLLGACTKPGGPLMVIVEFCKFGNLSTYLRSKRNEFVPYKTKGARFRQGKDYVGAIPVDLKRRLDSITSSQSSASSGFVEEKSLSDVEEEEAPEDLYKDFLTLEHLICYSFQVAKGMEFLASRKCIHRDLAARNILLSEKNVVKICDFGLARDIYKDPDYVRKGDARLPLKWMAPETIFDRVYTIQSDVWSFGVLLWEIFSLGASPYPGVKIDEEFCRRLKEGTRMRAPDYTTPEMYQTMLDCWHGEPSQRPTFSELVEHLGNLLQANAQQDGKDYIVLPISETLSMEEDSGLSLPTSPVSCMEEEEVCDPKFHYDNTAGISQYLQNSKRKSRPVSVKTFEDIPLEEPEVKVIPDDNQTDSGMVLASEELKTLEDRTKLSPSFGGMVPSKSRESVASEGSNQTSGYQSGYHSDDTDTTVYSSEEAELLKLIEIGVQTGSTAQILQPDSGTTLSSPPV
T1 sequence (P08684 whole entry): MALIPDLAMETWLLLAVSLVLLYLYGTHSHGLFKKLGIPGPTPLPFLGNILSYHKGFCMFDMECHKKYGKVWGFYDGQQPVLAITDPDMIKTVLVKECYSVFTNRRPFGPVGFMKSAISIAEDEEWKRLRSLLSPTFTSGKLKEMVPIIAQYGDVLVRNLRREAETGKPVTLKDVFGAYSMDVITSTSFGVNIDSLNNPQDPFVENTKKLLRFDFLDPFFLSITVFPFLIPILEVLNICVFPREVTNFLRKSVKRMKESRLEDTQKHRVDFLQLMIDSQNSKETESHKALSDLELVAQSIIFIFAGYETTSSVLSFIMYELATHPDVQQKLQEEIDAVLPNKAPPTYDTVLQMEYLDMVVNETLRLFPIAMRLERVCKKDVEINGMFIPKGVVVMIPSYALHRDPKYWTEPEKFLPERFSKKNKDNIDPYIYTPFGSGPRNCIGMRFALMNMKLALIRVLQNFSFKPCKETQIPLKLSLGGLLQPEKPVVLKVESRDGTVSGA

On to `O=C(Nc1ccc(OCC(F)(F)F)cc1)c1ccccc1NCc1ccc(=O)[nH]c1` [Example 1.5], for which the IC50 against VEGFR II (KDR) turned out to be 59 nM; in assay [1] (heading: Inhibition of Cyp 450 3A4) it was 11 µM.
Turning to `O=C(Nc1ccc(OC(F)(F)F)cc1)c1ccccc1NCc1ccc(=O)[nH]c1` [Example 1.0, 2-[(6-Oxo-1,6-dihydro-pyridin-3-ylmethyl)-amino]-N-(4-trifluoromethoxy-phenyl)-benzamide], the results for the IC50 (against VEGFR II (KDR); in assay [1] (read-out: Inhibition of Cyp 450 3A4 (IC50))) were 56 nM and 5.6 µM, respectively.

For orientation: IC50 means the concentration that inhibits the measured activity by half.

These data come from patent US7202260B2, “VEGFR-2 and VEGFR-3 inhibitory anthranilamide pyridones” (Schering AG, priority 2003, dated 2007).
